Experiment: Dynamic Vapor Sorption (DVS) with PXRD of the material after DVS
Type: physicochemical
Protocol: DVS analysis was conducted using a TA Instruments TGA Q5000 SA. DVS was run at 25 degrees C. The sample was pre-dried at 25 degrees C. and 0% relative humidity (% RH) until the dm/dt was 0.01% for up to 300 minutes. Adsorption and desorption isotherms were measured by ramping the humidity from 0% RH to 90% RH to 0% RH at 10% RH step intervals with a stability criterion of dm/dt=0.01% or 300 minutes unless otherwise noted. Data analysis was performed using Universal Analysis 2000 Version 4.5 A.

| Compound | relative stability of HCl salt solid forms (conclusion based on the DVS experiment) | water (DVS weight gain) (25 degrees C, first cycle, up to 50% RH) | solid form after DVS (PXRD pattern) (after two cycle DVS, 0% RH to 90% RH to 0% RH, 25 degrees C) |
| --- | --- | --- | --- |
| CCOC1(c2cccc(C(N)=O)c2)C2CCCC1CNC2.Cl [hydrochloride Form B, 3-((1R,5S,9r-9-ethoxy-3-azabicyclo-[3.3.1]nonan-9-yl)-benzamide hydrochloride] | most stable HCl salt solid form |  |  |
| CCOC1(c2cccc(C(N)=O)c2)C2CCCC1CNC2.Cl [hydrochloride Form D, 3-((1R,5S,9r-9-ethoxy-3-azabicyclo-[3.3.1]nonan-9-yl)-benzamide hydrochloride] |  | approximately 0.5% | consistent with hydrochloride Form B |

Source: patent US20210238177A1, “CRYSTALLINE FORMS OF 3-((1R,5S,9r)-9-ETHOXY-3-AZABICYCLO[3.3.1]NONAN-9-YL)-BENZAMIDE AND SALT FORMS THEREOF” (Alkermes, Inc., priority 2020, published 2021)
